Measurements as given in US9624491B2, “Methods and compositions for the detection and treatment of cancer involving miRNAs and miRNA inhibitors and targets” (Memorial Sloan Kettering Cancer Center, priority 2010, dated 2017).

Columns and labels:
NOTCH1-induced T-ALL = assay: Mouse model of Notch-ICN (NOTCH1)-induced T-ALL, adoptive transfer of transduced HPCs; type: in vivo; conditions: HPCs expressing NOTCH1-ICN plus miRNA or shRNA transplanted into irradiated recipients
Procedure: Can miR-19 drive the development of lymphatic malignancies in vivo? Based on the miR-19 expression and translocation data, miR-19 was assessed in a mouse model of T-ALL (Pear, et al., 1996). Briefly, most cases of T-ALL carry mutations in the Notch1 gene, and, like the […] translocation, these generate the constitutively active intracellular domain of NOTCH1 (Notch-ICN) (Weng, et al., 2004). To test miR-19's ability to promote Notch-ICN-induced T-ALL in vivo, HPCs were adoptively transferred into irradiated recipients (FIG. 3d). […] At the same time, 80% of the mice receiving HPCs expressing only Notch-ICN remained disease free (p=0.0003) (FIG. 3e).
The mouse models of Notch1-induced T-ALL and the EμMyc lymphoma based on adoptive transfer of retrovirally transduced HPCs have been reported (Pear, et al., 1996), (Wendel, et al., 2004). Data were analyzed in Kaplan-Meier format using the log-rank (Mantel-Cox) test for statistical significance. The p53 loss of heterozygosity polymerase chain reaction (LOH PCR) and immunophenotyping by surface marker analysis were as described (Wendel, et al., 2004).
A murine model of NOTCH1-induced T-ALL was used to directly test the oncogenic potential of the most promising miRNAs in vivo. Briefly, HPCs were transduced with NOTCH1 together with either empty vector or an miRNA and transplanted into irradiated, syngeneic recipients. Animals were monitored for leukemia onset by regular blood counts (FIG. 22a). […] Typically, animals receiving HPCs transduced with these miRNAs develop an acute leukemia by 75 days, while >80% of vector controls or animals receiving miR-30 (n=5, p=0.15) remain disease free at this time (FIG. 22b). Based on the in vitro screen and prediction, additional miRNAs were tested. […] Thus, miR-19b, miR-20a, miR-26a, miR-223 and also the less abundant miR-27a and miR-148/152 behave as oncogenes in a murine T-ALL model.
The mouse T-ALL model has been reported (Pear, et al., 1996), (Wendel, et al., 2004). Data were analyzed in Kaplan-Meier format using the log-rank (Mantel-Cox) test for statistical significance. […]

[1] = tested on: PTEN, BCL2L11, PHF6, IKZF1, NF1, FBXW7; assay: 3′UTR reporter, quantitative PCR and immunoblot assays of tumor suppressor genes in murine leukemias; type: cell-based; conditions: murine T-ALLs expressing NOTCH1 and miRNA, mRNA, protein
Procedure: Immunoblots of whole cell lysates were performed as described (Wendel, et al., 2004). Antibodies were against Bim/Bcl2l11 (AAP-330, 1:1000, Assay Designs), Nf1 (sc67, 1:100, Santa Cruz), Cdc4/Fbxw7 (ab7405, 1:500, Abeam), Ikzf1 (sc-13039, 1:500, Santa Cruz), Phf6 (NB100-79861, 1:1000, Novus Biologicals), Pten (9559, 1:1000, Cell Signaling), tubulin (1:5000; Sigma, B-5-1-2) and actin (1:5000; Sigma, AC-15).
Total RNA and miRNA-enriched RNA was extracted using the Allprep DNA/RNA/Protein and miRNeasy Mini kits. Pathological diagnosis was by expert hematopathologists at Weill Cornell Medical Center. cDNA synthesis, PCR and analysis by the ΔΔ Ct method were as described (Mavrakis, et al., 2008) and utilized Taqman Gene Expression Assays: Bcl2l11 (Mm00437796_m1), BCL2L11 (Hs00197982_m1), Pten (Mm01212532_m1), PTEN (Hs02621230_s1), Nf1 (Mm00812430_m1), NF1 (Hs01035104_m1), Ikzf1 (Mm01187878_m1), IKZF1 (Hs00172991_m1), Fbxw7 (Mm00504452_m1), FBXW7 (Hs00217794_m1), Phf6 (Mm00804415_m1), and Mouse GAPD (GAPDH) (4352932, Applied Biosystems). Expression was normalized to RNU6B (001093, Applied Biosystems).
The mouse FBXW7 (bp 2793-4139; acc. no. NM_001177773), human NF1 (bp 10033-10666; acc. no NM_000267), human PHF6 (bp position 3271-4299; acc. no. NM_001015877) and Bim (bp. 3155-4773; acc. no. NM_009754) 3′UTR fragments were generated by PCR and cloned into the psi-CHECK-2 vector (Promega) with the exception of the IKZF1 3′UTR, which was purchased from Genecopoeia (cat no. HmiT000397b, by 2343-4471 of UTR). The assays were performed as described (Xiao, et al., 2008).

Substance: miR-148: miRNA, UCAGUGCACUACAGAACUUUGU (SEQ ID NO: 8) (expressed or natural sequence; listed as Homo sapiens)
- leukemia onset / leukemia-free survival (NOTCH1-induced T-ALL): significant disease acceleration
- regulation of tumor suppressor genes [1]: regulate IKZF1, NF1 and FBXW7
